Experimental findings from US10123978B2, “Patch for treating dermatophytosis” (MEIJI SEIKA PHARMA CO., LTD., priority 2012, dated 2018) are described below.

The test system of the first experiment is Trichophyton rubrum (T. rubrum) ATCC10218. In words: Antifungal activity test against dermatophytes (MIC). In kind it is cell-based. As to conditions: 80% growth inhibiting concentration, RPMI1640/MOPS, 28° C., 4 days, WST8. Here is the method: (§1) Measurement of the anti-trichophyton activity of the compound of the formula (I) comprised in the patch of the present invention was carried out by the following method. The compound to be evaluated was used by dissolving in dimethyl sulfoxide (DMSO). As a medium for the test, RPMI1640 medium containing 0.165M of 3-morpholinopropanesulfonic acid (MOPS) was used. As fungi to be tested, Trichophyton mentagrophytes (T. mentagrophytes) ATCC18748 or Trichophyton rubrum (T. rubrum) ATCC10218 was used. The testing fungal strain was apportioned to 100 μl with a concentration of 1×10^4 conidia/ml, mixed with a compound to be evaluated on a 96-well half area plate so that the DMSO concentration became 1%, and cultured at a cultivation temperature of 28° C. for 3 days (Trichophyton mentagrophytes) or 4 days (Trichophyton rubrum). Thereafter, 5 μl of Cell Counting Kit 8 (WST8) was added thereto, and absorbances at 450 nm and 595 nm were measured to use these as background values. Thereafter, these were cultivated at 28° C. for 5 hours (Trichophyton mentagrophytes) or overnight (Trichophyton rubrum) to cause a color, and absorbances at 450 nm and 595 nm were measured again. A growth inhibiting rate was calculated from the difference to the background values, and a 80% growth inhibiting concentration was made an MIC value (μg/ml).
Background: Tetrazolium assays rely on reduction of a dye to a coloured formazan, in cell work by metabolically active cells.
With `Cc1nn(-c2ccc(F)cc2O)c(C)c1Cl` [compound 21], the “MIC (T. rubrum)” value is reported as “B (4-16 μg/ml)”.

`CCc1cc(CC)n(-c2ccccc2O)n1` [compound 14]: the “MIC (T. rubrum)” value is “B (4-16 μg/ml)”.

Consider `Cc1cc(C)n(-c2ccc(O)cc2O)n1` [compound 33], for which the “MIC (T. rubrum)” value is “A (≤2 μg/ml)”.

Consider `Cc1cc(C)n(-c2ccc(C(F)(F)F)cc2O)n1` [compound 50], for which the “MIC (T. rubrum)” value is recorded as “B (4-16 μg/ml)”.

`Cc1nn(-c2ccccc2O)c(C)c1C` [compound 9]: the “MIC (T. rubrum)” value is “A (≤2 μg/ml)”.

Turning to `Oc1ccccc1-n1nc(C(F)(F)F)cc1C(F)(F)F` [compound 6], the “MIC (T. rubrum)” value is reported as “E (>64 μg/ml)”.

Take `COC(=O)CCc1c(C)nn(-c2ccccc2O)c1C` [compound 23]: the “MIC (T. rubrum)” value was “D (>32-64 μg/ml)”.

Regarding `Cc1cc(C)n(-c2ccc(N)cc2O)n1` [compound 31], the “MIC (T. rubrum)” value is “B (4-16 μg/ml)”.

On to `Cc1cc(C)n(-c2cccc(O)c2O)n1` [compound 15], for which the “MIC (T. rubrum)” value is listed as “C (16-32 μg/ml)”.

In the case of `Cc1cc(C)n(-c2ccccc2O)n1` [compound 1], the “MIC (T. rubrum)” value is “B (4-16 μg/ml)”.

Consider `COc1ccc(-n2nc(C)cc2C)c(O)c1` [compound 45], for which the “MIC (T. rubrum)” value is “A (≤2 μg/ml)”.

Take `Cc1cc(C)n(-c2cc(O)ccc2O)n1` [compound 16]: the “MIC (T. rubrum)” value is reported as “E (>64 μg/ml)”.

Consider `Cc1nn(-c2ccc(O)cc2O)c(C)c1Cl` [compound 63], for which the “MIC (T. rubrum)” value is “A (≤2 μg/ml)”.

For `Cc1ccc(O)c(-n2nc(C)cc2C)c1` [compound 49], the “MIC (T. rubrum)” value is “D (>32-64 μg/ml)”.

For the compound `Cc1nn(-c2ccccc2O)c(C)c1F` [compound 53], the “MIC (T. rubrum)” value is on record as “B (4-16 μg/ml)”.

As to `CC(=O)Oc1ccc(-n2nc(C)c(Cl)c2C)c(O)c1` [compound 58], the “MIC (T. rubrum)” value was “A (≤2 μg/ml)”.

Consider `CNc1ccc(-n2nc(C)cc2C)c(O)c1` [compound 48], for which the “MIC (T. rubrum)” value was “B (4-16 μg/ml)”.

On to `Cc1cc(C)n(-c2ccc(F)cc2O)n1` [compound 25], for which the “MIC (T. rubrum)” value is reported as “B (4-16 μg/ml)”.

In another experiment the test system is Trichophyton mentagrophytes (T. mentagrophytes) ATCC18748. Described as above. In kind it is cell-based. As to conditions: 80% growth inhibiting concentration, RPMI1640/MOPS, 28° C., 3 days, WST8. As for the experimental part:
as §1
On to `Cc1nn(-c2ccc(F)cc2O)c(C)c1Cl` [compound 21], for which the “MIC (T. mentagrophytes)” value is “A (≤1 μg/ml)”.

As to `CCc1cc(CC)n(-c2ccccc2O)n1` [compound 14], the “MIC (T. mentagrophytes)” value is recorded as “B (2 to 8 μg/ml)”.

On to `Cc1cc(C)n(-c2ccc(O)cc2O)n1` [compound 33], for which the “MIC (T. mentagrophytes)” value is reported as “B (2 to 8 μg/ml)”.

On to `Cc1cc(C)n(-c2ccc(C(F)(F)F)cc2O)n1` [compound 50], for which the “MIC (T. mentagrophytes)” value is recorded as “B (2 to 8 μg/ml)”.

`Cc1nn(-c2ccccc2O)c(C)c1C` [compound 9]: the “MIC (T. mentagrophytes)” value was “A (≤1 μg/ml)”.

Consider `Oc1ccccc1-n1nc(C(F)(F)F)cc1C(F)(F)F` [compound 6], for which the “MIC (T. mentagrophytes)” value is “C (16 to 32 μg/ml)”.

As for `COC(=O)CCc1c(C)nn(-c2ccccc2O)c1C` [compound 23], the “MIC (T. mentagrophytes)” value is reported as “C (16 to 32 μg/ml)”.

Turning to `Cc1cc(C)n(-c2ccc(N)cc2O)n1` [compound 31], the “MIC (T. mentagrophytes)” value is “B (2 to 8 μg/ml)”.

`Cc1cc(C)n(-c2cccc(O)c2O)n1` [compound 15]: the “MIC (T. mentagrophytes)” value is given as “C (16 to 32 μg/ml)”.

In the case of `Cc1cc(C)n(-c2ccccc2O)n1` [compound 1], the “MIC (T. mentagrophytes)” value is on record as “B (2 to 8 μg/ml)”.

`COc1ccc(-n2nc(C)cc2C)c(O)c1` [compound 45]: the “MIC (T. mentagrophytes)” value was “A (≤1 μg/ml)”.

For the compound `Cc1cc(C)n(-c2cc(O)ccc2O)n1` [compound 16], the “MIC (T. mentagrophytes)” value is “C (16 to 32 μg/ml)”.

Consider `Cc1nn(-c2ccc(O)cc2O)c(C)c1Cl` [compound 63], for which the “MIC (T. mentagrophytes)” value is on record as “A (≤1 μg/ml)”.

Consider `Cc1ccc(O)c(-n2nc(C)cc2C)c1` [compound 49], for which the “MIC (T. mentagrophytes)” value was “E (Inhibited less than 50% with 32 μg/ml)”.

For the compound `Cc1nn(-c2ccccc2O)c(C)c1F` [compound 53], the “MIC (T. mentagrophytes)” value is “B (2 to 8 μg/ml)”.

In the case of `CC(=O)Oc1ccc(-n2nc(C)c(Cl)c2C)c(O)c1` [compound 58], the “MIC (T. mentagrophytes)” value was “B (2 to 8 μg/ml)”.

In the case of `CNc1ccc(-n2nc(C)cc2C)c(O)c1` [compound 48], the “MIC (T. mentagrophytes)” value is reported as “B (2 to 8 μg/ml)”.

For the compound `Cc1cc(C)n(-c2ccc(F)cc2O)n1` [compound 25], the “MIC (T. mentagrophytes)” value was “B (2 to 8 μg/ml)”.
